Read-outs that look alike come from different tables or passages of the source.
Assays:
HCC827-ER1 cells = test: Cell viability assay (CellTiter-Glo), cell proliferation; type: cell-based; conditions: for IC50: HCC827-ER1, read on Day 5, CellTiter-Glo, read-out: Absolute IC50
Description: (§1) Cell lines and maintenance: Both cell lines (HCC827-ER1 and NCI-H1975) used for in vitro and in vivo studies were supplied by Crown Biosciences cell bank. […] NCI-H1975 cells were maintained in RPMI medium supplemented with 10% heat inactivated fetal bovine serum+100 ug/mL Hygromyocin at 37° C. in an atmosphere of 5% CO2 in air. The tumor cells were routinely subcultured twice weekly. The cells growing in an exponential growth phase were used for the in vitro cell potency and in vivo efficacy studies.
(§2) Cell Viability Assay: For cell cytotoxicity assays, cells were plated in 96-well plates and plating densities were determined on the basis of Crown Biosciences Cell line Database. Cells were plated at 2000 cells/well. Twenty four hours after plating, cells were treated with inhibitors at the indicated compound concentrations. On Day 5, cells were lysed with CellTiter-Glo® Luminescent Cell Viability Assay reagent (Promega) and luminescence was read using the EnVision Multi-plate reader. To calculate IC50s, a dose-response curve is generated using a nonlinear regression model with a sigmoidal dose response. IC50s were automatically generated by GraphPad Prism 8.0. The formula of surviving rate is shown below:
(§3) The surviving rate (%)=((LumTest article−LumMedium control)/(LumNone treated−LumMedium control))×100

[1] = tested on: NCI-H1975 (L858R/T790M/C797S) cells; test: as above; type: cell-based; conditions: for IC50: NCI-H1975 (L858R/T790M/C797S), read on Day 5, CellTiter-Glo, read-out: Absolute IC50
Description: as §1, §2, §3

HCC827-ER1 tumor = HCC827-ER1 tumor model, in vivo tumor volume; conditions: HCC827-ER1 tumors in female Balb/C Nude animals, during treatment, FIG. 2A-B
Description: Animals (6-8 weeks) were obtained from Shanghai Lingchang Biotechnology Co., Ltd (Shanghai, China) and were allowed to acclimate prior to tumor cell inoculation.
All cell lines were maintained in culture and cells in exponential growth phase were harvested and quantitated by cell counter before tumor inoculation. HCC827-ER1 tumor cells (5×10^7) in 0.1 ml of PBS mixed with Matrigel (1:1) inoculated into female Balb/C Nude animals, mean tumor approximately 325 mm^3 at the start of treatment.
The date of randomization and treatment initiation was denoted as day 0. Tumor volumes were measured twice per week in two dimensions using a caliper, and the volume will be expressed in mm^3 using the formula: V=(L×W×W)/2, where V is tumor volume, L is tumor length (the longest tumor dimension) and W is tumor width (the longest tumor dimension perpendicular to L). Dosing volume was 10 mL/kg/day. GH21005 were dissolved in HP-β-CD was dissolved with 200 ml of 50 mM sodium citrate (pH=4.2). Anti-PD-1 and Rat IgG2a were diluted in PBS.
Upon termination, tumors were collected 2 hours post last dose.

| IC50 (HCC827-ER1 cells; 120 h) [nM] | IC50 ([1]; Homo sapiens, 120 h) [nM] | SMILES | IC50 (HCC827-ER1 cells) [nM] | IC50 [1] [nM] | effect on tumor volume (HCC827-ER1 tumor) | potency in cell proliferation assay compared to TNO-155 and RMC-4550 (HCC827-ER1 cells; HCC827-ER1 cell model, FIG. 1A) | potency in cell proliferation assay compared to TNO-155 and RMC-4550 ([1]; NCI-H1975 cell model, FIG. 1B) |
| --- | --- | --- | --- | --- | --- | --- | --- |
| – | – | N.N.[Cl][Pt][Cl] [Cisplatin] | 7170 | 10300 | – | – | – |
| 1890 | > 10000 | C[C@H]1OCC2(CCN(c3cnc(Sc4ccnc(N)c4Cl)c(N)n3)CC2)[C@H]1N [GH21001(TNO-155)] | – | – | – | – | – |
| 80 | 960 | C[C@@H]1OCC2(CCN(c3cnc(Sc4cccc(NC(=O)c5c(O)nc6n(c5=O)CCCC6)c4Cl)cn3)CC2)[C@@H]1N [GH21005(HBI-2376), N-(3-((5-((3S,4S)-4-amino-3-methyl-2-oxa-8-azaspiro[4.5]decan-8-yl)pyrazin-2-yl)thio)-2-chlorophenyl)-2-hydroxy-4-oxo-6,7,8,9-tetrahydro-4H-pyrido[1,2-a]pyrimidine-3-carboxamide] | – | – | did not result in a reduction of tumor volume | superior potency | superior potency |

| SMILES | IC50 (HCC827-ER1 cells; 120 h) [nM] | IC50 ([1]; Homo sapiens, 120 h) [nM] | IC50 (HCC827-ER1 cells) [nM] | IC50 [1] [nM] | effect on tumor volume (HCC827-ER1 tumor) | potency in cell proliferation assay compared to TNO-155 and RMC-4550 (HCC827-ER1 cells; HCC827-ER1 cell model, FIG. 1A) | potency in cell proliferation assay compared to TNO-155 and RMC-4550 ([1]; NCI-H1975 cell model, FIG. 1B) |
| --- | --- | --- | --- | --- | --- | --- | --- |
| C=CC(=O)Nc1cc(Nc2nccc(-c3cn(C)c4ccccc34)n2)c(OC)cc1N(C)CCN(C)C [Osimertinib] | 2800 | […] | – | – | only a slight and temporary decrease in tumor volume, followed by growth in tumor volume | – | – |
